Like-named read-outs stand apart in the source and are kept apart here.
Test system: panel of 55 breast cancer cell lines
Experiment: Cell growth inhibition assay (Cell Titer Glo, 72 h, 9 doses; GI50, TGI, LC50)
Assay type: cell-based, human
Details: Homo sapiens, read-out: GI50 (converted)

SMILES: COc1cccc2c1C(=O)c1c(O)c3c(c(O)c1C2=O)C[C@@](O)(C(=O)CO)C[C@@H]3O[C@H]1C[C@H](N)[C@H](O)[C@H](C)O1 [Doxorubicin]
- GI50 (600MPE cell line, censored GI50 values): 269 nM
- GI50 (AU565, AU565 cell line, censored GI50 values): 93.3 nM
- GI50 (AU565, cell line AU565): 93.3 nM
- GI50 (BT-474, BT474 cell line, censored GI50 values): 309 nM
- GI50 (BT-474, cell line BT474): 309 nM
- GI50 (BT-483, BT483 cell line, censored GI50 values): 151 nM
- GI50 (BT-483, cell line BT483): 151 nM
- GI50 (CAMA-1, CAMA1 cell line, censored GI50 values): 263 nM
- GI50 (CAMA-1, cell line CAMA1): 263 nM
- GI50 (HCC38, HCC38 cell line, censored GI50 values): 72.4 nM
- GI50 (HCC38, cell line HCC38): 72.4 nM
- GI50 (HCC70, HCC70 cell line, censored GI50 values): 2290 nM
- GI50 (HCC70, cell line HCC70): 2290 nM
- GI50 (HCC202, HCC202 cell line, censored GI50 values): 525 nM
- GI50 (HCC202, cell line HCC202): 525 nM
- GI50 (HCC1143, HCC1143 cell line, censored GI50 values): 525 nM
- GI50 (HCC1143, cell line HCC1143): 525 nM
- GI50 (HCC1187, HCC1187 cell line, censored GI50 values): 132 nM
- GI50 (HCC1187, cell line HCC1187): 132 nM
- GI50 (HCC1395, HCC1395 cell line, censored GI50 values): 251 nM
- GI50 (HCC1395, cell line HCC1395): 251 nM
- GI50 (HCC1419, HCC1419 cell line, censored GI50 values): 513 nM
- GI50 (HCC1419, cell line HCC1419): 513 nM
- GI50 (HCC1428, HCC1428 cell line, censored GI50 values): 1200 nM
- GI50 (HCC1428, cell line HCC1428): 1200 nM
- GI50 (HCC1500, HCC1500 cell line, censored GI50 values): 200 nM
- GI50 (HCC1500, cell line HCC1500): 200 nM
- GI50 (HCC1806, HCC1806 cell line, censored GI50 values): 162 nM
- GI50 (HCC1806, cell line HCC1806): 162 nM
- GI50 (HCC1954, HCC1954 cell line, censored GI50 values): 186 nM
- GI50 (HCC1954, cell line HCC1954): 186 nM
- GI50 (HCC2185 cell line, censored GI50 values): 69.2 nM
- GI50 (HCC3153 cell line, censored GI50 values): 355 nM
- GI50 (LY2 cell line, censored GI50 values): 195 nM
- GI50 (MCF7, MCF7 cell line, censored GI50 values): 501 nM
- GI50 (MCF7, cell line MCF7): 501 nM
- GI50 (MDA-MB-134-VI, MDAMB134VI cell line, censored GI50 values): 1200 nM
- GI50 (MDA-MB-157, MDAMB157 cell line, censored GI50 values): 398 nM
- GI50 (MDA-MB-157, cell line MDAMB157): 398 nM
- GI50 (MDA-MB-175-VII, MDAMB175VII cell line, censored GI50 values): 708 nM
- GI50 (MDA-MB-231, MDAMB231 cell line, censored GI50 values): 214 nM
- GI50 (MDA-MB-231, cell line MDAMB231): 214 nM
- GI50 (MDA-MB-361, MDAMB361 cell line, censored GI50 values): 234 nM
- GI50 (MDA-MB-361, cell line MDAMB361): 234 nM
- GI50 (MDA-MB-415, MDAMB415 cell line, censored GI50 values): 372 nM
- GI50 (MDA-MB-415, cell line MDAMB415): 372 nM
- GI50 (MDA-MB-436, MDAMB436 cell line, censored GI50 values): 589 nM
- GI50 (MDA-MB-436, cell line MDAMB436): 589 nM
- GI50 (MDA-MB-453, MDAMB453 cell line, censored GI50 values): 214 nM
- GI50 (MDA-MB-453, cell line MDAMB453): 214 nM
- GI50 (MDA-MB-468, MDAMB468 cell line, censored GI50 values): 741 nM
- GI50 (MDA-MB-468, cell line MDAMB468): 741 nM
- GI50 (SK-BR-3, SKBR3 cell line, censored GI50 values): 126 nM
- GI50 (SK-BR-3, cell line SKBR3): 126 nM
- GI50 (SUM52PE, SUM52PE cell line, censored GI50 values): 97.7 nM
- GI50 (SUM52PE, cell line SUM52PE): 97.7 nM
- GI50 (SUM185PE, SUM185PE cell line, censored GI50 values): 309 nM
- GI50 (SUM185PE, cell line SUM185PE): 309 nM
- GI50 (SUM1315MO2, SUM1315MO2 cell line, censored GI50 values): 214 nM
- GI50 (SUM-159-PT, SUM159PT cell line, censored GI50 values): 347 nM
- GI50 (SUM-159-PT, cell line SUM159PT): 347 nM
- GI50 (UACC-812, UACC812 cell line, censored GI50 values): 74.1 nM
- GI50 (UACC-812, cell line UACC812): 74.1 nM
- GI50 (UACC-893, UACC893 cell line, censored GI50 values): 832 nM
- GI50 (UACC-893, cell line UACC893): 832 nM
- GI50 (ZR-75-1, ZR751 cell line, censored GI50 values): 138 nM
- GI50 (ZR-75-1, cell line ZR751): 138 nM
- GI50 (ZR-75-30, ZR7530 cell line, censored GI50 values): 110 nM
- GI50 (ZR-75-30, cell line ZR7530): 110 nM
- GI50 (ZR-75B, ZR75B cell line, censored GI50 values): 251 nM
- GI50 (ZR-75B, cell line ZR75B): 251 nM
- GI50 (cell line 600MPE): 269 nM
- GI50 (cell line HCC2185): 69.2 nM
- GI50 (cell line HCC3153): 355 nM
- GI50 (cell line LY2): 195 nM
- GI50 (cell line MDAMB134V): 1200 nM
- GI50 (cell line MDAMB175V): 708 nM
- GI50 (cell line SUM1315MO): 214 nM

Source: patent publication US10770169B2, “Method of providing a treatment to a subject based on a dynamic pathway map” (THE REGENTS OF THE UNIVERSITY OF CALIFORNIA, priority 2010, dated 2020)
